Patent US20190100534A1, “Cephem Compounds with Latent Reactive Groups” (Gladius Pharmaceuticals, Inc., priority 2017, published 2019)

What was measured:
[1] = tested on: KP (URMC-1); test: MIC determination; assay type: cell-based, Klebsiella pneumoniae; conditions: CAMH broth, 20 μM Apo-Transferrin, 37° C., 18 hours
Protocol: (§1) Sterile technique was used throughout these experiments. Suspensions of organisms were removed from storage (−80° C.) and partially thawed. Partially thawed organisms (1 μL) were inoculated into 3 mL sterile LB Broth in a sterile culture tube and capped, then cultured at 37° C. with shaking for 4-5 hours until the optical density at 600 nm (OD600) was greater than 0.1 on a single beam spectrophotometer.
(§2) The concentration of organisms was adjusted to 0.08-0.1 OD600 (0.5 McFarland units) by dilution with sterile cation-adjusted Meuller-Hinton (CAMH) broth. The suspensions were used within 30 minutes of preparation.
(§3) A stock solution was made of each test compound by measuring 6.4 mg of the compound on an analytical balance and dissolving it in DMSO (1 mL) to get a transparent solution. The solutions were stored at −20° C. and thawed prior to use.
(§4) Sterile CAMH broth (200 μL) containing 20 μM Apo-Transferrin was pipetted into the first row of 8 columns of a sterile, round-bottomed, transparent, 96-well microplate using an 8-channel pipette equipped with sterile tips. One hundred μL was pipetted into the wells of the remaining 11 rows.
(§5) With an 8-channel pipette equipped with sterile tips, 100 μL of the first row solution was transferred to the second row and mixed. The process was repeated for the second to third rows and continued through row 11. One hundred μL from row 11 was removed and discarded so that all 12 rows contained 100 μL. Row 12 contained no compound and rows 1-11 contained 64, 32, 16, 8, 4, 2, 1, 0.5, 0.25, 0.125, […] of a given compound.
(§6) Inoculant suspensions (0.5 μL) were added to the 12 wells of each column. The plates were then covered and incubated at 37° C. overnight for 18 hours.
(§7) For each organism the MIC was determined by identifying the transparent well with the lowest test compound concentration.

[2] = tested on: KP (URMC-2); test: MIC determination; assay type: cell-based, Klebsiella pneumoniae; conditions: CAMH broth, 20 μM Apo-Transferrin, 37° C., 18 hours
Protocol: as §1, §2, §3, §4, §5, §6, §7

[3] = tested on: KP (URMC-3); test: MIC determination; assay type: cell-based, Klebsiella pneumoniae; conditions: CAMH broth, 20 μM Apo-Transferrin, 37° C., 18 hours
Protocol: as §1, §2, §3, §4, §5, §6, §7

[4] = tested on: KP (RR -1); test: MIC determination; assay type: cell-based, Klebsiella pneumoniae; conditions: CAMH broth, 20 μM Apo-Transferrin, 37° C., 18 hours
Protocol: as §1, §2, §3, §4, §5, §6, §7

[5] = tested on: KP (ATCC KPC-3); test: MIC determination; assay type: cell-based, Klebsiella pneumoniae; conditions: CAMH broth, 20 μM Apo-Transferrin, 37° C., 18 hours
Protocol: as §1, §2, §3, §4, §5, §6, §7

[6] = tested on: KP(GJ 5934 TEM-26); test: MIC determination; assay type: cell-based, Klebsiella pneumoniae; conditions: CAMH broth, 20 μM Apo-Transferrin, 37° C., 18 hours
Protocol: as §1, §2, §3, §4, §5, §6, §7

[7] = tested on: KP(JMI KPC-2); test: MIC determination; assay type: cell-based, Klebsiella pneumoniae; conditions: CAMH broth, 20 μM Apo-Transferrin, 37° C., 18 hours
Protocol: as §1, §2, §3, §4, §5, §6, §7

[8] = tested on: KP (GJ 5659 TEM-26); test: MIC determination; assay type: cell-based, Klebsiella pneumoniae; conditions: CAMH broth, 20 μM Apo-Transferrin, 37° C., 18 hours
Protocol: as §1, §2, §3, §4, §5, §6, §7

[9] = tested on: KP(ATCC TEM-10/TEM-12); assay type: cell-based, Klebsiella pneumoniae; conditions: CAMH broth, 20 μM Apo-Transferrin, 37° C., 18 hours
Protocol: as §1, §2, §3, §4, §5, §6, §7

[10] = tested on: Pseudomonas aeruginosa (PA); test: MIC determination; assay type: cell-based; conditions: Pseudomonas aeruginosa; PA; CAMH broth, 20 μM Apo-Transferrin, 37° C., 18 hours; read-out: Minimum Inhibitory Concentrations, PA
How it was run: (§8)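 Broth microdilution in cation-adjusted Mueller-Hinton broth with 20 μM apo-transferrin, two-fold compound series from 64 μg/mL, inoculum adjusted to 0.5 McFarland from 4-5 h LB cultures. Plates incubated 18 h at 37 °C. MIC taken as lowest concentration leaving a clear well.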

[11] = tested on: Pseudomonas aeruginosa PA-RR-(G7304100); test: MIC determination; assay type: cell-based; conditions: Pseudomonas aeruginosa; PA-RR-(G7304100); CAMH broth, 20 μM Apo-Transferrin, 37° C., 18 hours; read-out: Minimum Inhibitory Concentrations, PA-RR-(G7304100)
How it was run: as §8

[12] = tested on: Pseudomonas aeruginosa PA (URMC-2); test: MIC determination; assay type: cell-based; conditions: Pseudomonas aeruginosa; PA (URMC-2); CAMH broth, 20 μM Apo-Transferrin, 37° C., 18 hours; read-out: Minimum Inhibitory Concentrations, PA (URMC-2)
How it was run: as §8

[13] = tested on: Pseudomonas aeruginosa PA-RR-(980151052); test: MIC determination; assay type: cell-based; conditions: Pseudomonas aeruginosa; PA-RR-(980151052); CAMH broth, 20 μM Apo-Transferrin, 37° C., 18 hours; read-out: Minimum Inhibitory Concentrations, PA-RR-(980151052)
How it was run: as §8

[14] = tested on: Pseudomonas aeruginosa PA (URMC-3); test: MIC determination; assay type: cell-based; conditions: Pseudomonas aeruginosa; PA (URMC-3); CAMH broth, 20 μM Apo-Transferrin, 37° C., 18 hours; read-out: Minimum Inhibitory Concentrations, PA (URMC-3)
How it was run: as §8

[15] = tested on: Pseudomonas aeruginosa PA-RR-(G8062859); test: MIC determination; assay type: cell-based; conditions: Pseudomonas aeruginosa; PA-RR-(G8062859); CAMH broth, 20 μM Apo-Transferrin, 37° C., 18 hours; read-out: Minimum Inhibitory Concentrations, PA-RR-(G8062859)
How it was run: as §8

[16] = tested on: EA (URMC -3); test: MIC determination; assay type: cell-based; conditions: CAMH broth, 20 μM Apo-Transferrin, 37° C., 18 hours
Protocol: as §1, §2, §3, §4
To each well of the first row was pipetted 2.0 μL of the 6.4 mg/mL stock test compound stock solution to give 1:100 dilutions and a final concentration of 64 μg/mL and mixed.
as §5, §6, §7

[17] = tested on: EC(KB2 CTX-M-15); test: MIC determination; assay type: cell-based, Escherichia coli; conditions: Escherichia coli, CAMH broth, 20 μM Apo-Transferrin, 37° C., 18 hours, read-out: Minimum Inhibitory Concentrations, EC(KB2 CTX-M-15)
Protocol: as §1, §2, §3, §4, §5, §6, §7

[18] = tested on: EC(ATCC NDM-1); test: MIC determination; assay type: cell-based, Escherichia coli; conditions: Escherichia coli, CAMH broth, 20 μM Apo-Transferrin, 37° C., 18 hours, read-out: Minimum Inhibitory Concentrations, EC(ATCC NDM-1)
Protocol: as §1, §2, §3, §4, §5, §6, §7

[19] = tested on: EC(KB1 CTX-M-15); test: MIC determination; assay type: cell-based, Escherichia coli; conditions: Escherichia coli, CAMH broth, 20 μM Apo-Transferrin, 37° C., 18 hours, read-out: Minimum Inhibitory Concentrations, EC(KB1 CTX-M-15)
Protocol: as §1, §2, §3, §4, §5, §6, §7

[20] = tested on: EC (URMC-3); test: MIC determination; assay type: cell-based, Escherichia coli; conditions: Escherichia coli, CAMH broth, 20 μM Apo-Transferrin, 37° C., 18 hours, read-out: Minimum Inhibitory Concentrations, EC (URMC-3)
Protocol: as §1, §2, §3, §4, §5, §6, §7

[21] = tested on: EC (RR -1); test: MIC determination; assay type: cell-based, Escherichia coli; conditions: CAMH broth, 20 μM Apo-Transferrin, 37° C., 18 hours
Protocol: as §1, §2, §3, §4, §5, §6, §7

[22] = tested on: EC (RR -2); test: MIC determination; assay type: cell-based, Escherichia coli; conditions: CAMH broth, 20 μM Apo-Transferrin, 37° C., 18 hours
Protocol: as §1, §2, §3, §4, §5, §6, §7

[23] = tested on: EC(JMI OXA-48); test: MIC determination; assay type: cell-based, Escherichia coli; conditions: Escherichia coli, CAMH broth, 20 μM Apo-Transferrin, 37° C., 18 hours, read-out: Minimum Inhibitory Concentrations, EC(JMI OXA-48)
Protocol: as §1, §2, §3, §4, §5, §6, §7

[24] = tested on: EC (URMC-1); test: MIC determination; assay type: cell-based, Escherichia coli; conditions: Escherichia coli, CAMH broth, 20 μM Apo-Transferrin, 37° C., 18 hours, read-out: Minimum Inhibitory Concentrations, EC (URMC-1)
Protocol: as §1, §2, §3, §4, §5, §6, §7

[25] = tested on: EC (URMC-2); test: MIC determination; assay type: cell-based, Escherichia coli; conditions: Escherichia coli, CAMH broth, 20 μM Apo-Transferrin, 37° C., 18 hours, read-out: Minimum Inhibitory Concentrations, EC (URMC-2)
Protocol: as §1, §2, §3, §4, §5, §6, §7

[26] = tested on: ENA (URMC-1); test: MIC determination; assay type: cell-based, Enterobacter aerogenes; conditions: Klebsiella aerogenes, CAMH broth, 20 μM Apo-Transferrin, 37° C., 18 hours, read-out: Minimum Inhibitory Concentrations, ENA (URMC-1)
Protocol: as §1, §2, §3, §4, §5, §6, §7

[27] = tested on: ENA (URMC-2); test: MIC determination; assay type: cell-based, Enterobacter aerogenes; conditions: Klebsiella aerogenes, CAMH broth, 20 μM Apo-Transferrin, 37° C., 18 hours, read-out: Minimum Inhibitory Concentrations, ENA (URMC-2)
Protocol: as §1, §2, §3, §4, §5, §6, §7

[28] = tested on: ENC (ATCC NDM-1); test: MIC determination; assay type: cell-based, Enterobacter cloacae; conditions: CAMH broth, 20 μM Apo-Transferrin, 37° C., 18 hours
Protocol: as §1, §2, §3, §4, §5, §6, §7

Q: Which results are given for `CC(C)(O/N=C(\C(=O)N[C@@H]1C(=O)N2C(C(=O)O)=C(C=Cc3ccc(C[N+]4(C)Cc5c(Cl)c(O)c(O)c(Cl)c5C4)cc3)CS[C@H]12)c1csc(N)n1)C(=O)O` (mixture of isomers) [Compound 431, 2-(4-((E/Z)-2-((6R,7R)-7-((Z)-2-(2-aminothiazol-4-yl)-2-(((2-carboxypropan-2-yl)oxy)imino)acetamido)-2-carboxy-8-oxo-5-thia-1-azabicyclo[4.2.0]oct-2-en-3-yl)vinyl)benzyl)-4,7-dichloro-5,6-dihydroxy-2-methylisoindolin-2-ium]?
A: Minimum Inhibitory Concentrations, KP (URMC-1) [1]: 0.25 microgram/mL; Minimum Inhibitory Concentrations, KP (URMC-2) [2]: 0.13 microgram/mL; Minimum Inhibitory Concentrations, KP (URMC-3) [3]: ≤0.06 microgram/mL; Mimimum Inhibitory Concentrations, KP (RR -1) [4]: 0.13 microgram/mL; Minimum Inhibitory Concentrations, KP (ATCC KPC-3) [5]: >64 microgram/mL; Minimum Inhibitory Concentrations, KP(GJ 5934 TEM-26) [6]: 0.5 microgram/mL; Minimum Inhibitory Concentrations, KP(JMI KPC-2) [7]: 8 microgram/mL; Minimum Inhibitory Concentrations, KP (GJ 5659 TEM-26) [8]: 0.5 microgram/mL; Minimum Inhibitory Concentrations, KP(ATCC TEM-10/TEM-12) [9]: 16 microgram/mL; MIC [10]: 0.25 µg/mL; MIC [11]: ≤ 0.06 µg/mL; MIC [12]: ≤ 0.06 µg/mL; MIC [13]: 0.25 µg/mL; MIC [14]: 1 µg/mL; MIC [15]: 0.5 µg/mL; Mimimum Inhibitory Concentrations, EA (URMC -3) [16]: 1 microgram/mL; MIC [17]: 2 µg/mL; MIC [18]: > 64 µg/mL; MIC [19]: 2 µg/mL; MIC [20]: 0.25 µg/mL; Mimimum Inhibitory Concentrations, EC (RR -1) [21]: ≤0.06 microgram/mL; Mimimum Inhibitory Concentrations, EC (RR -2) [22]: ≤0.06 microgram/mL; MIC [23]: 0.5 µg/mL; MIC [24]: 0.25 µg/mL; MIC [25]: ≤ 0.06 µg/mL; MIC [26]: 0.5 µg/mL; MIC [27]: 0.5 µg/mL; Mimimum Inhibitory Concentrations, ENC (ATCC NDM-1) [28]: >64 microgram/mL
